Experimental data: paper PMC4167698, “Fatty Acid Esters of Phloridzin Induce Apoptosis of Human Liver Cancer Cells through Altered Gene Expression” (PLoS ONE, 2014)

Legend:
[1] = system: MDA-MB-231 cells; assay: MTS cell proliferation assay, MDA-MB-231; format: cell-based, human; conditions: MTS
Description: (§1) Cell viability was determined by using the MTS assay. In brief, HepG2 cells (5×10^3 cells/100 µL/well), MDA-MB-231 (5×10^3 cells/100 µL/well), THP-1 (25×10^3/100 µL/well), normal human and rat hepatocytes (1×10^4 cells/100 µL/well) were plated in triplicate, in a 96 well sterile flat bottom tissue culture plates. […] Thereby, cells were exposed to various concentrations (0.1, 1, 10, 25, 50, 75, 100 µM) of each treatment. Controls consist of cells with media containing DMSO (<0.5%), test blank wells contained the test compound in media with no cells and blank wells contained media with no cells. After additional 3, 6, 12, 18 or 24 h, 20 µL of the MTS reagent in combination with the electron coupling agent, phenazine methosulfate were added to the wells and cells were incubated in a humidified incubator for 3 h. Absorbance at 490 nm (OD490) was measured by using a Flurostar Optima microplate reader (BMG Labtech, Cary, NC, USA) to obtain the number of viable cells relative to the control population. Percentage of viability of the test compound treated cells are expressed as percentage compared to control (<0.5% DMSO). […] The selective index (SI) of the fatty acid esters of phloridzin is defined as the ratio of cytotoxicity (EC50 values) on normal HP-F cells to solid cancer HepG2, MDA-MB-231 cells (SI = EC50 on HP-F cells/EC50 on solid cancer cells). Samples with SI values greater than three were considered to have high selectivity towards cancer cells.

[2] = system: normal human hepatocytes (HP-F); assay: MTS cell viability assay, normal human hepatocytes; format: cell-based; conditions: 24 h
Description: as §1

[3] = system: THP-1 cells; assay: MTS cell proliferation assay, THP-1; format: cell-based, human; conditions: MTS
Description: as §1

[4] = system: HepG2 cells; assay: MTS cell proliferation assay, HepG2; format: cell-based, human; conditions: MTS
Description: as §1

COc1cccc2c1C(=O)c1c(O)c3c(c(O)c1C2=O)C[C@@](O)(C(=O)CO)C[C@@H]3O[C@H]1C[C@H](N)[C@H](O)[C@H](C)O1 [Doxorubicin, doxorubicin]
EC50 ([1]; Homo sapiens, MDA-MB-231, 3 h): > 100 µM | EC50 ([1]; Homo sapiens, MDA-MB-231, 6 h): > 100 µM | EC50 ([1]; Homo sapiens, MDA-MB-231, 12 h): 9.6 ± 0.2 µM | EC50 ([1]; Homo sapiens, MDA-MB-231, 18 h): 5.9 ± 0.3 µM | EC50 ([1]; Homo sapiens, MDA-MB-231, 24 h): 4.1 ± 0.1 µM

CC/C=C\C/C=C\C/C=C\C/C=C\C/C=C\C/C=C\CCC(=O)O [DHA, decosahexaenoic acid]
EC50 [2]: > 100 µM | EC50 ([3]; THP-1, 3 h): > 100 µM | EC50 ([3]; THP-1, 6 h): > 100 µM | EC50 ([3]; THP-1, 12 h): > 100 µM | EC50 ([3]; THP-1, 18 h): > 100 µM | EC50 ([3]; THP-1, 24 h): > 100 µM | EC50 ([1]; MDA-MB-231, 3 h): > 100 µM | EC50 ([1]; MDA-MB-231, 6 h): > 100 µM | EC50 ([1]; MDA-MB-231, 12 h): > 100 µM | EC50 ([1]; MDA-MB-231, 18 h): > 100 µM | EC50 ([1]; MDA-MB-231, 24 h): > 100 µM | EC50 ([4]; HepG2, 3 h): > 100 µM | EC50 ([4]; HepG2, 6 h): > 100 µM | EC50 ([4]; HepG2, 12 h): > 100 µM | EC50 ([4]; HepG2, 18 h): > 100 µM | EC50 ([4]; HepG2, 24 h): > 100 µM

CC/C=C\C/C=C\C/C=C\CCCCCCCC(=O)O [α-Linolenic acid, α-linolenic acid]
EC50 [2]: > 100 µM | EC50 ([3]; THP-1, 3 h): > 100 µM | EC50 ([3]; THP-1, 6 h): > 100 µM | EC50 ([3]; THP-1, 12 h): > 100 µM | EC50 ([3]; THP-1, 18 h): > 100 µM | EC50 ([3]; THP-1, 24 h): > 100 µM | EC50 ([1]; MDA-MB-231, 3 h): > 100 µM | EC50 ([1]; MDA-MB-231, 6 h): > 100 µM | EC50 ([1]; MDA-MB-231, 12 h): > 100 µM | EC50 ([1]; MDA-MB-231, 18 h): > 100 µM | EC50 ([1]; MDA-MB-231, 24 h): > 100 µM | EC50 ([4]; HepG2, 3 h): > 100 µM | EC50 ([4]; HepG2, 6 h): > 100 µM | EC50 ([4]; HepG2, 12 h): > 100 µM | EC50 ([4]; HepG2, 18 h): > 100 µM | EC50 ([4]; HepG2, 24 h): > 100 µM
